{
  "source": "patent US9650389B2",
  "about": "“8-oxoprotoberberine derivative or pharmaceutically acceptable salt thereof, preparation method therefor and pharmaceutical composition for preventing or treating diseases associated with activity of NFAT5, containing same as active ingredient” (Korea Research Institute of Chemical Technology, priority 2013, dated 2017)",
  "key": {"[1]": {"assay": "Metabolic stability in human liver microsomes", "assay_type": "in vitro ADME", "conditions": "human liver microsome fractions, 30 minutes", "experimental": "(§1) Particularly, each compound was added to rat and human liver microsome fractions, followed by culture for 30 minutes. Each compound was administered via intravenous injection (iv) and oral-administration (po) to rat at the concentration of 5 mg/kg, followed by making pharmacokinetic profiles."}, "[2]": {"assay": "Cytotoxicity test (WST-8), HFL-1", "assay_type": "cell-based", "conditions": "human, HFL-1 embryonic lung cells; HFL-1, 24 hours", "experimental": "(§2) To investigate the cytotoxicity of the derivative of the present invention, 5 kinds of cell lines (VERO: African green monkey kidney cell line, HFL-1: human embryonic lung cell line, L929: NCTC clone 929, mouse fibroblast cell line, NIH 3T3: mouse embryonic fibroblast cell line, and CHO-K1: Chinese hamster ovary cell line) were distributed in a 96-well plate at the density of 1×10^4 cells/well, which were treated with the compound of the present invention for 24 hours. The water-soluble tetrazolium salt WST-8 was added thereto. The orange colored formazan dye degraded by dehydrogenase in the live cells was read, followed by nonlinear regression to determine 50% growth inhibition concentration."}, "COX1": {"molecular_target": "T1, COX1 (Ovis aries, UniProt P05979)", "T1 construct": "purchased Cayman Co. 760111", "T1 sequence (P05979 25-600)": "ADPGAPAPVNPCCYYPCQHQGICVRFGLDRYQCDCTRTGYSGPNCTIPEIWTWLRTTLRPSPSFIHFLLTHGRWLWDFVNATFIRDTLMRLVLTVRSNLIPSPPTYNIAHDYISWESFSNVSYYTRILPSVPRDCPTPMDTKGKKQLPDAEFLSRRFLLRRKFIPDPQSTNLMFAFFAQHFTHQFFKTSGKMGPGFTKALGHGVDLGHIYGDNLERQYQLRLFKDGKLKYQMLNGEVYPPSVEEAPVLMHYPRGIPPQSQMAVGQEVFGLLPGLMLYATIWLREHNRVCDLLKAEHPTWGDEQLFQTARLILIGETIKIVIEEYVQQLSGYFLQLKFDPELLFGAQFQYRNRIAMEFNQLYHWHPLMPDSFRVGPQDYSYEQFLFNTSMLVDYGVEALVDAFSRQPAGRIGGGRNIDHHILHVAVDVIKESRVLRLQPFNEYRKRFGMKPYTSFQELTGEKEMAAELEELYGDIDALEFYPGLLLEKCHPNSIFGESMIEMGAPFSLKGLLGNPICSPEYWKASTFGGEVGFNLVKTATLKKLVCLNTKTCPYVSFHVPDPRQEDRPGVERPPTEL", "assay": "COX inhibition, COX assay kit (Table 4)", "assay_type": "biochemical", "experimental": "(§3) 10 μl of substrate and 10 μl of arachidonic acid were added thereto, followed by reaction for 10 minutes in the darkness. Then, OD590 was measured."}, "NFAT5": {"test_system": "NFAT5", "assay": "NFAT5 protein in LPS-stimulated spleen cells of collagen-induced arthritis mice", "assay_type": "in vivo", "conditions": "CIA mouse spleen cells treated with LPS; FIG. 9", "excerpt": "Particularly, the spleen cells of the mouse having arthritis induced by collagen by the same manner as described in Example 11 were stimulated with LPS. Protein was extracted from the cells, followed by quantification of NFAT5 protein."}, "[3]": {"test_system": "NFAT5 transcript BGT1 and AR", "assay": "NaCl-mediated up-regulation of NFAT5 transcripts (hypertonic condition), RAW264.7 cells, real-time PCR", "assay_type": "cell-based, mouse", "conditions": "1 μM pre-treatment 1 hour, NaCl 45 mM 3 hours", "experimental": "It was investigated whether or not the factors regulated by NFAT5 under the hypertonic condition could be affected by the compound of Example 1. Particularly, RAW264.7 cells were distributed in a 6-well plate at the density of 1.5×10^5 cells/well, followed by culture and stabilization in 10% FBS-RPMI 1640 medium. The cells were pre-treated with the compound of Example 1 (1 μM) for 1 hour, and then stimulated with NaCl (45 mM) for 3 hours. mRNA was extracted from the cells, from which cDNA was synthesized."}, "COX2": {"molecular_target": "T2, COX2 (Ovis aries, UniProt P79208)", "T2 construct": "purchased Cayman Co. 760111", "T2 sequence (P79208 17-603)": "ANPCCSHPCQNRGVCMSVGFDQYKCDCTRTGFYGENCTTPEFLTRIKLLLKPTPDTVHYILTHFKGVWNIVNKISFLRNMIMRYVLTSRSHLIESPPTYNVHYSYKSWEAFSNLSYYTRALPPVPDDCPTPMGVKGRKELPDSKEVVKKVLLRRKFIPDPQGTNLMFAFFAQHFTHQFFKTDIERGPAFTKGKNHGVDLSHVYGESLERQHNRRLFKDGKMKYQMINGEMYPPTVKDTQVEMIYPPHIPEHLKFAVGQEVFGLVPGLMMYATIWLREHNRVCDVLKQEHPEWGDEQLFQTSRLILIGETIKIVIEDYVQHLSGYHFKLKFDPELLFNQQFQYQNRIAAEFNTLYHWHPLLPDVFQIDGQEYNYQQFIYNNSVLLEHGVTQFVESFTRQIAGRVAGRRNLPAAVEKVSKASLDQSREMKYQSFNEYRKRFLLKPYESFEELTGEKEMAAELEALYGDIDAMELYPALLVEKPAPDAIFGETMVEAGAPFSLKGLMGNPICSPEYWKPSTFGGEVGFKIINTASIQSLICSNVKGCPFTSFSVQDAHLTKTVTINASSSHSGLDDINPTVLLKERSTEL", "assay": "COX inhibition, COX assay kit (Table 5)", "assay_type": "biochemical", "experimental": "as §3"}, "[4]": {"assay": "Cytotoxicity test (WST-8), L929", "assay_type": "cell-based", "conditions": "mouse, L929 fibroblast cells (NCTC clone 929); L929, 24 hours", "experimental": "as §2"}, "[5]": {"assay": "Metabolic stability in rat liver microsomes", "assay_type": "in vitro ADME", "conditions": "rat liver microsome fractions, 30 minutes", "experimental": "as §1"}, "[6]": {"conditions": "Conc. 20 μM, two values per substance"}, "[7]": {"conditions": "Conc. 20 μM, two values per substance, read-out: inhibition rate"}, "[8]": {"conditions": "Conc. 100 μM, two values per substance"}, "[9]": {"conditions": "Conc. 100 μM, two values per substance, read-out: inhibition rate"}},
  "data": [
    {"compound": "COc1ccc2c(Cc3ccccc3F)c3n(c(=O)c2c1OC)CCc1cc2c(cc1-3)OCO2", "note": "[Example 1, 13-(2-fluorobenzyl)-9,10-dimethoxy-5H-[1,3]dioxolo[4,5-g]isoquinolino[3,2-a]isoquinoline-8(6H)-one]", "values": [
      {"measurement": "remaining compound, Human (%)", "setting": "[1]", "value": "68.2 ± 6.1", "unit": "%"},
      {"measurement": "GI50 at 24 h", "setting": "[2]", "value": 26.1, "unit": "µM"},
      {"measurement": "inhibitory effect on COX1 (in words)", "setting": "COX1", "value": "weak inhibitory effect"},
      {"measurement": "inhibition rate", "setting": "COX1; [6]", "value": 7.4},
      {"measurement": "inhibition at 20 µM", "setting": "COX1; [7]", "value": 11.4, "unit": "%"},
      {"measurement": "inhibition rate", "setting": "COX1; [8]", "value": 23.4},
      {"measurement": "inhibition at 100 µM", "setting": "COX1; [9]", "value": 28.4, "unit": "%"},
      {"measurement": "IC50", "setting": "COX1; Table 4", "value": "> 100", "unit": "µM"},
      {"measurement": "expression of NFAT5", "setting": "NFAT5", "value": "suppressed"},
      {"measurement": "NaCl-mediated up-regulation of BGT1 transcript", "setting": "[3]; FIG. 5A", "value": "not changed"},
      {"measurement": "NaCl-mediated up-regulation of AR transcript", "setting": "[3]; FIG. 5B", "value": "not changed"},
      {"measurement": "inhibitory effect on COX2 (in words)", "setting": "COX2", "value": "weak inhibitory effect"},
      {"measurement": "inhibition rate", "setting": "COX2; [6]", "value": 15.5},
      {"measurement": "inhibition at 20 µM", "setting": "COX2; [7]", "value": 12.1, "unit": "%"},
      {"measurement": "inhibition rate", "setting": "COX2; [8]", "value": 25.7},
      {"measurement": "inhibition at 100 µM", "setting": "COX2; [9]", "value": 36.7, "unit": "%"},
      {"measurement": "IC50", "setting": "COX2; Table 5", "value": "> 100", "unit": "µM"},
      {"measurement": "GI50 at 24 h", "setting": "[4]", "value": 40.3, "unit": "µM"},
      {"measurement": "remaining compound, Rat (%)", "setting": "[5]", "value": "35 ± 3", "unit": "%"}
    ]}
  ]
}
